Tests used:
[1] = biological target: T1, Growth hormone secretagogue receptor type 1 (Homo sapiens, UniProt Q92847); assay: Agonist activity at human GHS receptor expressed in H4 glioma cells assessed as intracellular calcium concentration by FLIPR assay; type: functional, cell-based
[2] = biological target: T2, Cytochrome P450 3A4 (Homo sapiens, UniProt P08684); assay: Inhibition of CYP3A4 using 7-benzyloxy-4-trifluoromethylcoumarin as a substrate; type: ADME
[3] = biological target: Cytochrome P450 2D6 (Homo sapiens, UniProt P10635); assay: Inhibition of CYP2D6; type: ADME
Sequence of Cytochrome P450 2D6 (P10635 whole entry): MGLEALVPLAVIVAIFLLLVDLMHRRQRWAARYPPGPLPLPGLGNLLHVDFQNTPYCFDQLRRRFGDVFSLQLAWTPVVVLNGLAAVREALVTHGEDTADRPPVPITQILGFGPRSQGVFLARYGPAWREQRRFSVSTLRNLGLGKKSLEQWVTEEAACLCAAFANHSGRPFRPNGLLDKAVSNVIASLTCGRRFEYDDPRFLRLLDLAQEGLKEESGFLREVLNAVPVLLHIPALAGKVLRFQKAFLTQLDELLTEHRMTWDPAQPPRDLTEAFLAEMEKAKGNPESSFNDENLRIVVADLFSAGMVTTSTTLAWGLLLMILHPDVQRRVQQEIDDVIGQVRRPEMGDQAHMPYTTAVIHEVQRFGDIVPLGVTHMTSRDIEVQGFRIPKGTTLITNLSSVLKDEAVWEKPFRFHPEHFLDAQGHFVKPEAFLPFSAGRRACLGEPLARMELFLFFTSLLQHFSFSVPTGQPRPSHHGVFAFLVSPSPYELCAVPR

[4] = test system: Rattus norvegicus; assay: Increase in plasma GH level in acute anesthetized iv dosed Wistar rat model; type: functional
[5] = Oral bioavailability in rat; type: ADME, organism-based; conditions: in vivo
[6] = biological target: Cytochrome P450 2C19 (Homo sapiens, UniProt P33261); assay: Inhibition of CYP2C19; type: ADME
Sequence of Cytochrome P450 2C19 (P33261 whole entry): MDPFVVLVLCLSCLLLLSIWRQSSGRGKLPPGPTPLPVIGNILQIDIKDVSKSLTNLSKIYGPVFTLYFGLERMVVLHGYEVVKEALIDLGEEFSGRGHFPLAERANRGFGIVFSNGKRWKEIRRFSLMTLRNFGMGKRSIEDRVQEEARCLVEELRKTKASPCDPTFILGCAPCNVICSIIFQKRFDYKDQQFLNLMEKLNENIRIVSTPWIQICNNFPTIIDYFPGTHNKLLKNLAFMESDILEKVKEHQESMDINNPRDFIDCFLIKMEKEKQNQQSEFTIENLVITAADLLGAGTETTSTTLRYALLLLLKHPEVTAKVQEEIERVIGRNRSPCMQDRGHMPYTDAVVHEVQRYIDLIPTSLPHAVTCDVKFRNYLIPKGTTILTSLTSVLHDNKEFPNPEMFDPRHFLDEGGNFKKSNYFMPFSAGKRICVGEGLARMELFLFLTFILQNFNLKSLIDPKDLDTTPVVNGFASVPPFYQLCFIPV

[7] = biological target: T2, Cytochrome P450 3A4; assay: Inhibition of CYP3A4 using 7-benzyloxyresorufin as a substrate; type: ADME
[8] = biological target: T1, Growth hormone secretagogue receptor type 1; assay: Agonist activity at human GHS receptor expressed in H4 glioma cells; type: cell-based
[9] = biological target: Cytochrome P450 2C9 (Homo sapiens, UniProt P11712); assay: Inhibition of CYP2C9; type: ADME
Sequence of Cytochrome P450 2C9 (P11712 whole entry): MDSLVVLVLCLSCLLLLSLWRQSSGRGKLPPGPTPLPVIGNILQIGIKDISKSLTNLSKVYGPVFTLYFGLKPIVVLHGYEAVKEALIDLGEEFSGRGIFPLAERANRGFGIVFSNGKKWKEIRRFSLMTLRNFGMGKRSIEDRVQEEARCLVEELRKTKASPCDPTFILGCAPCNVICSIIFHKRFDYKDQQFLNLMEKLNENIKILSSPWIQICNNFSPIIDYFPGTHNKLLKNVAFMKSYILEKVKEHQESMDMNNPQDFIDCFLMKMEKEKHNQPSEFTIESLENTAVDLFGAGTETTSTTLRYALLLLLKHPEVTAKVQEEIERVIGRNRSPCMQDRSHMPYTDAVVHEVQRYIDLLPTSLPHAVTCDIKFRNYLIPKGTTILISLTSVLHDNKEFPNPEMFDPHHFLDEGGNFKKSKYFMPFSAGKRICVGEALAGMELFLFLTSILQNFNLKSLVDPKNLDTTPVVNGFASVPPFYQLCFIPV

[10] = biological target: T3, Cytochrome P450 1A2 (Homo sapiens, UniProt P05177); assay: Inhibition of CYP1A2; type: ADME
T3 sequence (P05177 whole entry): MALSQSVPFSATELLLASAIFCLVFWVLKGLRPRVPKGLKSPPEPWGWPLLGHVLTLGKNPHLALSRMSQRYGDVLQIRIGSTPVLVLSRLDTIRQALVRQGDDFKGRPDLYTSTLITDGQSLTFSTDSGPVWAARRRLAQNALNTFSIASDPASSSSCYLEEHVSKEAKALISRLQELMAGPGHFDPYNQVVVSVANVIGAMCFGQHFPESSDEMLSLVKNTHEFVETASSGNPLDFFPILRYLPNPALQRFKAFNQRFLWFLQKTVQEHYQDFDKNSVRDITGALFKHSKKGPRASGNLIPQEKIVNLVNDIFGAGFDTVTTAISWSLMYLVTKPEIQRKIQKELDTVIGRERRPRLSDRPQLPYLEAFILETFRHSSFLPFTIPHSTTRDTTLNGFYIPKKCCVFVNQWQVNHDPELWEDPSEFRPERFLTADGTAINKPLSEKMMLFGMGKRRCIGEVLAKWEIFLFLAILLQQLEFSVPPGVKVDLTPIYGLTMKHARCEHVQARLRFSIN

[11] = Oral bioavailability in dog; type: ADME, organism-based, Canis lupus familiaris; conditions: in vivo

T2 sequence (P08684 whole entry): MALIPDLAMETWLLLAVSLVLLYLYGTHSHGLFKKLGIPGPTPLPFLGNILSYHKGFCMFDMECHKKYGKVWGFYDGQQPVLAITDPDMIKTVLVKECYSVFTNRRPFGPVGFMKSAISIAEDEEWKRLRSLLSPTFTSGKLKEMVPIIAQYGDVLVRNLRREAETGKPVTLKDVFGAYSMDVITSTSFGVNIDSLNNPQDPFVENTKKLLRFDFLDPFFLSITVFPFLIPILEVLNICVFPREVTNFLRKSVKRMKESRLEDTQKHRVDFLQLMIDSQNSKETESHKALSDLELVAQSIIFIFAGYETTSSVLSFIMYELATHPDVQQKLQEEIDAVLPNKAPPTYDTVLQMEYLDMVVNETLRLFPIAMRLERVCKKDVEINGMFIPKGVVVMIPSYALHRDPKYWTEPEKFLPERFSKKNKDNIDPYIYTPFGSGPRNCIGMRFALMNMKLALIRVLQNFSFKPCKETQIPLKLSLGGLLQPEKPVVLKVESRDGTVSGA
T1 sequence (Q92847 whole entry): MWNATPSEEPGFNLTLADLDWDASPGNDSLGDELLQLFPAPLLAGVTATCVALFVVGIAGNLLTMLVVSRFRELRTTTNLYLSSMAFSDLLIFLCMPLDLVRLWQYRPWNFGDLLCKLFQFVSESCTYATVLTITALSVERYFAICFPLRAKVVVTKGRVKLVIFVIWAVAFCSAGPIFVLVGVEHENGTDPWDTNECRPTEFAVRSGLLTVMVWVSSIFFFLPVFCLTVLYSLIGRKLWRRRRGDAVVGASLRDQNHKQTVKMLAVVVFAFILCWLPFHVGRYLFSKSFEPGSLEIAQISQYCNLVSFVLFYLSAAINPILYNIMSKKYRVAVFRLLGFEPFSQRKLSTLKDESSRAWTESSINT

Compound | EC50 [1] | Ki [8] | other results
CC(C)(N)C(=O)N[C@H](COCc1ccccc1)c1nnnn1[C@H](CC#N)COc1ccccc1O | 0.3 nM | 5.7 nM | IC50 [2]: 9800 nM; IC50 [3]: 5100 nM; ED250 [4]: <0.15 µmol/kg; IC50 [6]: 42000 nM; IC50 [7]: 5500 nM; IC50 [9]: > 66000 nM; IC50 [10]: > 66000 nM
CC(C)(N)C(=O)N[C@H](COCc1ccccc1)c1nnn(C(CC#N)CCc2ccccc2)n1 (single isomer, unassigned; diastereomer 1) | 150 nM | 2560 nM | –
CC(C)(N)C(=O)N[C@H](COCc1ccccc1)c1nnnn1[C@@H](CC#N)COc1ccccc1 | 19 nM | 197 nM | –
CC(C)(N)C(=O)N[C@H](COCc1ccccc1)c1nnnn1[C@@H](CC#N)COc1ccccn1 | 19 nM | 503 nM | –
CC(C)(N)C(=O)N[C@H](COCc1ccccc1)c1nnn(CC(C#N)Cc2ccccc2)n1 (mixture of isomers) | 2470 nM | > 5000 nM | –
CC(C)(N)C(=O)N[C@H](COCc1ccccc1)c1nnnn1[C@H](CC#N)COc1ccccc1 | 0.4 nM | 7.5 nM | ED250 [4]: 0.87 µmol/kg
CC(C)(N)C(=O)N[C@H](COCc1ccccc1)c1nnnn1CCC#N | – | – | ED250 [4]: 4.8 µmol/kg
CC(C)(N)C(=O)N[C@H](COCc1ccccc1)c1nnn(CCC(C#N)c2ccccc2)n1 (mixture of isomers) | 302 nM | > 5000 nM | –
CC(C)(N)C(=O)N[C@H](COCc1ccccc1)c1nnnn1CC(C#N)Cc1ccccc1 (mixture of isomers) | 22 nM | 298 nM | –
CC(C)(N)C(=O)N[C@H](COCc1ccccc1)c1nnnn1C(CC#N)CCc1ccccc1 (single isomer, unassigned; diastereomer 2) | 139 nM | 1380 nM | –
CC(C)(N)C(=O)N[C@H](COCc1ccccc1)c1nnnn1C(/C=C/c1ccccc1)CC#N (single isomer, unassigned; diastereomer 1) | 0.5 nM | 12 nM | ED250 [4]: >2 µmol/kg
CC(C)(N)C(=O)N[C@H](COCc1ccccc1)c1nnnn1C(CC#N)COc1ccccc1F (single isomer, unassigned; diastereomer 1) | 0.6 nM | 18 nM | –

More lines, in order of falling EC50 [1], values ahead:

EC50 [1] | Ki [8] | Compound | other results
244 nM | 3940 nM | CC(C)(N)C(=O)N[C@H](COCc1ccccc1)c1nnn(C(CC#N)CCc2ccccc2)n1 (single isomer, unassigned; diastereomer 2) | –
202 nM | 2510 nM | CC(C)(N)C(=O)N[C@H](COCc1ccccc1)c1nnn(C(/C=C/c2ccccc2)CC#N)n1 (single isomer, unassigned; diastereomer 2) | –
64 nM | 696 nM | CC(C)(N)C(=O)N[C@H](COCc1ccccc1)c1nnnn1C(CC#N)COc1ccccc1F (single isomer, unassigned; diastereomer 2) | –
62 nM | 737 nM | CC(C)(N)C(=O)N[C@H](COCc1ccccc1)c1nnnn1C(/C=C/c1ccccc1)CC#N (single isomer, unassigned; diastereomer 2) | –
27 nM | 611 nM | CC(C)(N)C(=O)N[C@H](COCc1ccccc1)c1nnnn1CCC(C#N)c1ccccc1 (mixture of isomers) | –
23 nM | 240 nM | CC(C)(N)C(=O)N[C@H](COCc1ccccc1)c1nnnn1[C@@H](CC#N)COc1ccccc1O | –
19 nM | 453 nM | CC(C)(N)C(=O)N[C@H](COCc1ccccc1)c1nnn(C(/C=C/c2ccccc2)CC#N)n1 (single isomer, unassigned; diastereomer 1) | –
0.8 nM | 63 nM | CC(C)(N)C(=O)N[C@H](COCc1ccccc1)c1nnnn1C(CC#N)CCc1ccccc1 (single isomer, unassigned; diastereomer 1) | ED250 [4]: 1.7 µmol/kg
0.4 nM | 40 nM | CC(C)(N)C(=O)N[C@H](COCc1ccccc1)c1nnnn1[C@H](CC#N)COc1ccccn1 | IC50 [2]: 59000 nM; IC50 [3]: > 100000 nM; ED250 [4]: 0.33 µmol/kg; bioavailability [5]: 24%; IC50 [6]: 33000 nM; IC50 [7]: 11000 nM; IC50 [9]: > 100000 nM; IC50 [10]: > 100000 nM; bioavailability [11]: 55%
